The source of these data is patent US9580487B2, “Method of treating stomach or bowel-related disorders by administering glucagon-like-peptide-2 (GLP-2) analogues” (Zealand Pharma A/S, priority 2005, dated 2017).

“Also recorded” adds a separate entry of the source. No end group written: not given here.

The test system of assay [1] is male Sprague Dawley rats treated with indomethacin. Kind of assay: Indomethacin-induced small intestinal ulcers (model of Crohn's disease), extent of ulceration. Type of assay: in vivo. The note with it: for Effect on ulceration compared with prednisolone: highest dose 200 nmol/kg vs prednisolone 10 mg/kg; for Estimated extent of ulceration: indomethacin alone 333±21 mm^2. The protocol:
FIG. 13 is a graph illustrating the effect of compound 1848 (SEQ ID NO:36) on small intestinal ulcers induced by indomethacin. Male Sprague Dawley rats were treated with vehicle (saline; group 1) or indomethacin (7 mg/kg s.c., once daily for two days; groups 2-7). Indomethacin was given alone (group 2) or in combination with prednisolone (10 mg/kg s.c.; group 3) or with 8, 40, or 200 nmol/kg compound 1848 (SEQ ID NO:36) s.c. […] (groups 4-6). Finally, one group of rats was treated with combination treatment of prednisolone (10 mg/kg s.c.) and compound 1848 (SEQ ID NO:36), 200 nmol/kg s.c. once daily (group 7). Treatment with compound 1848 (SEQ ID NO:36) was initiated 4 days prior to indomethacin and continued during the two days of indomethacin treatment. On day 3, rats were sacrificed and upon necropsy, the small intestine was gently flushed with 10% formalin and filled with formalin for a period of 5 minutes, after which the intestine was cut open along the antimesenteric margin and suspended on a polypropylene plate. Any remaining intestinal contents were carefully removed with a pair of tweezers. After fixation for another 24 hours at room temperature, the tissue was rinsed in Milli-Q water and surface-stained for 20 minutes with Alcian Green 3BX (Chroma) prepared as a 0.5% solution in 1% acetic acid (Bie & Berntsen). After removal of excess staining solution with Milli-Q water the tissue preparation was transferred to 70% alcohol and analyzed using a stereomicroscope at low magnification (×7). Starting at the pylorus, the small intestine was scanned and the shape (circular vs. linear) and size (circular ulcers: diameter, linear ulcers: length×width) of all ulcers was measured using a standard ruler (resolution: 0.5 mm). An ulcer was defined as an area, which lacked epithelial surface. In healing ulcers only the area that still lacked epithelial surface was regarded an ulcer even if the villus structure was still missing in a larger area. All analysis was performed in a blinded manner. […] Treatment with prednisolone caused a significant reduction in the extent of ulceration by app. 29%. […] Values are means±SEM. * P<0.05 vs. indomethacin (group 2). ^#P<0.05 vs. prednisolone (group 3).
Crohn's disease is a chronic disease that causes episodic inflammation of the small intestine. The effect of the GLP-2 analogue 1848 (SEQ ID NO:36) on small intestinal inflammation in an indomethacin-induced model of Crohn's disease was investigated. We have previously shown that administration of indomethacin (s.c, once daily for 2 days) induces small intestinal inflammation characterized by ulcerations and, increases in the pro-inflammatory cytokine, tumour necrosis factor alpha (TNF-α).
To determine the effect of ZP1848 (SEQ ID NO:36) on ulceration 1848 (SEQ ID NO:36) (8, 40 and 200 nmol/kg, s.c, twice daily (9:00 and 16:00)) was given for 4 days prior to the first dose of indomethacin and for an additional two days together with indomethacin. The corticosteroid, prednisolone (10 mg/kg, p.o) was used as a positive control since corticosteroids are commonly used in the treatment of active inflammation in Crohn's disease. In addition a group of animals were given both 1848 (SEQ ID NO:36) (200 nmol/kg) and prednisolone to determine the effects of a combination treatment. Twenty four hours after the last dose of 1848 (SEQ ID NO:36) had been given the animals were sacrificed the small intestine was gently flushed clean and fixed. To determine the extent of ulceration the intestine was cut open along the antimesenteric margin, suspended on a polypropylene plate and surface-stained with Alcian Green 3BX. Starting at the pylorus, the small intestine was scanned and the shape (circular vs. linear) and size (circular ulcers: diameter, linear ulcers: length×width) of all ulcers was measured using a standard ruler (resolution: 0.5 mm). An ulcer was defined as an area, which lacked epithelial surface. […]

In assay [2] the test system is Sprague-Dawley rats treated with 5-Fluorouracil (5-FU). Kind of assay: 5-FU-induced small intestinal atrophy and diarrhea in SD rats. Type of assay: in vivo. The protocol: FIG. 10 is a set of graphs showing effects of compound 1846 (SEQ ID NO:34) (16, 80 and 400 nmol/kg/d; s.c., n=6/dose group) in male Spague-Dawley rats treated with the cytostatic drug 5-Fluorouracil (5-FU). Compound 1846 (SEQ ID NO:34) was administered for 3 days prior to and for 4 days together with 5-FU (75 mg/kg, i.p. daily). Results were compared with responses in control animals treated with vehicle (saline) or 5-FU alone. Saline and 5-FU controls are also shown. […] Values are means±SEM. * P<0.05, relative to 5-FU alone.
FIG. 11 is a set of graphs showing the therapeutic effect of compound 1846 (SEQ ID NO:34) on diarrhea induced by treatment with the cytostatic drug 5-fluorouracil (5-FU). Rats were treated with 5-FU for 4 days with 75 mg/kg once daily (days 1-4); (n=40 rats). Half of the animals received additional treatment with compound 1846 (SEQ ID NO:34) (400 nmol/kg s.c. once daily) during the last 3 days prior to (days −3 to −1) and during 4 days of 5-FU treatment (days 0 to 3). Rats were observed twice daily (morning and evening) to determine whether the animal had diarrhea and the severity of the diarrhea was scored according to this scale: (0) no diarrhea; (1) mild—fecal staining around the anus; (2) moderate—fecal staining on the hind limbs and tail; and (3) severe—fecal staining on the front limbs and abdomen. On day 5, about 70% of Sprague Dawley rats that received 5-FU alone had developed diarrhea (FIG. 11A) while only 30% of the rats that were co-treated with compound 1846 (SEQ ID NO:34) developed diarrhea (FIG. 11B).
The effect of the clinical candidate, 1846 (SEQ ID NO:34), on 5-FU-induced small intestinal atrophy and diarrhea was investigated in SD rats. We have previously shown that i.p. administration of 75 mg/kg 5-FU once daily for four days induces significant small intestinal atrophy and diarrhea in SD rats. 1846 (SEQ ID NO:34) (16, 80 and 400 nmol/kg/d; […]) was administered twice daily for three days prior to 5-FU and for four days together with 5-FU administration. 5-FU controls and PBS controls were included in the study. […]

“[Gly2, Glu3, Ser8,11, Leu10, Ala16,24,28]hGLP-2(1-33)-(Lys)6-NH2 (HGEGSFSSELSTILDALAARDFIAWLIATKITDKKKKKK-NH2) [Compound 1846]”: in assay [1], the “Effect on ulceration compared with prednisolone” value was “greater than the effect of prednisolone”. The “Rats that developed diarrhea on day 5” value in assay [2] (400 nmol/kg s.c. with 5-FU 75 mg/kg, 5-FU alone about 70%) is listed as 30%. Besides, the “5-FU-induced small intestinal atrophy (SI-BW, SI length) in rats” value in assay [2] (16, 80 and 400 nmol/kg/d s.c., 3 days prior to and 4 days with 5-FU 75 mg/kg i.p. daily) is “prevented 5-FU-induced small intestine atrophy; also recorded: dose-dependently prevented 5-FU induced small intestinal atrophy and maintained SI-BW and SI length at levels similar to the controls”. For the same substance, in assay [2] (highest dose (400 nmol/kg), rats administered 5-FU), the “Incidence and severity of diarrhea” value was “decreased the incidence and severity of diarrhea”.

Turning to “[Gly2, Glu3, Thr5, Ser8, Leu10, Ala11,16,24,28]hGLP-2(1-33)-(Lys)6-NH2 (HGEGTFSSELATILDALAARDFIAWLIATKITDKKKKKK-NH2) [Compound 1848]”, the “Estimated extent of ulceration” value in assay [1] (8 nmol/kg s.c.) was 230±12 mm^2; in assay [1] (40 nmol/kg s.c.), 216±17 mm^2; in assay [1] (200 nmol/kg s.c.), 178±17 mm^2. Besides, the “Ulceration: addition of prednisolone to high dose compound” value in assay [1] (200 nmol/kg plus prednisolone 10 mg/kg) was “did not produced any additional effect”. The “Prevention of indomethacin-induced ulceration (in words)” value in assay [1] (8, 40, 200 nmol/kg) is “prevented indomethacin-induced ulceration in a dose-dependent fashion”. In assay [1], the “Effect on ulceration compared with prednisolone” value was “more effective than the positive control, prednisolone”. In addition, the “Reduction of total ulceration” value in assay [1] (highest dose (200 nmol/kg) vs indomethacin alone) is reported as approximately 50%.
